We go through three compounds from US10501454B2, “Monocyclic β-lactam-siderophore conjugate, and preparation method and use thereof” (Shanghai Institute of Materia Medica, Chinese Academy of …, priority 2016, dated 2019).

≈ marks a conversion by molar mass, not a printed value. Bounds are passed on as bounds.

Assay [1] has as its system Escherichia coli ATCC 35218. Nature of the assay: MIC, broth microdilution, normal MH medium. It is filed as cell-based. The note with it: for MIC: Escherichia coli, ATCC35218, quality control strain, read-out: Antibacterial activity MIC, Escherichia coli ATCC 35218. On the procedure: (§1) Strain for quality control: Escherichia coli ATCC35218, purchased from National Center of Clinical Laboratory.
(§2) Medium: MH liquid medium (OXOID).
(§3) Culture condition: cells were incubated at 35-37° C. for 16-18 h.
(§4) The broth microdilution method recommended by Clinical and Laboratory Standards Institute (CLSI), Performance Standards for Antimicrobial Susceptibility Testing; Twenty-Third Informational Supplement, M02-All, M07-A9 and M11-A8, 2013 was used to determine the MIC value of each test sample against each test strain in the normal MH medium and iron-deficient MH medium.
(§5) After diluting each sample to different concentrations with normal MH medium, 100 μl of each test sample solution at different concentrations was separately aspirated onto a 96-well sterile polystyrene plate. Drug solutions were added to the 1st to 10th well with the final concentrations of 16, 8, 4, 2, 1, 0.5, 0.25, 0.125, 0.06, and 0.03 mg/L in each well, respectively. The 11th well, as a blank control, was not added with drugs and bacteria. The 12th well, as a bacterial growth control, was added with bacteria but no drug.
(§6) The test bacterial liquid was adjusted to a bacterial suspension of 0.5 Mcfarland standard with physiological saline, and diluted with MH broth at 1:100, and then added to the drug solution so that a final concentration of the bacterial liquid was approximately 10^4 CFU/ml; 100 μl of the bacterial liquid was further added to each of the above wells (the total volume in each well is 200 μl), which was sealed and placed in a 35-37° C. incubator for 18-20 h for testing the result. The OD600 value was measured by a microplate reader, Minimal Inhibitory Concentration (MIC) of a drug is the lowest concentration of the drug which prevents growth of bacteria in the wells. 1.2.2 MIC in iron-deficient MH medium
Background: Broth dilution looks for growth in wells or tubes with falling amounts of substance.

In assay [2] the test system is Acinetobacter baumannii (4 strains). In words: MIC, broth microdilution, normal MH medium. It is filed as cell-based. On the procedure: (§7) Supplier of the strains: all of the above strains were provided by Sichuan Primed Shines Bio-tech Co., Ltd. A single colony was isolated by streaking on agar plates for each strain prior to the experiment, and the cells freshly cultured at 37° C. overnight were appropriately diluted for the experiment.
as §2, §3, §4, §5, §6

Assay [3] deals with Escherichia coli (4 strains). Nature of the assay: MIC, broth microdilution, normal MH medium. The class given is cell-based. The note with it: clinical isolates (ESBLs). On the procedure:
as §7, §2, §3, §4, §5, §6

For assay [4], the system named is Pseudomonas aeruginosa (4 strains). In words: MIC, broth microdilution, normal MH medium. The note with it: multidrug-resistant clinical isolates (integrator I, IMP4). The class given is cell-based. On the procedure:
as §7, §2, §3, §4, §5, §6

For assay [5], the system named is Klebsiella pneumoniae (4 strains). Nature of the assay: MIC, broth microdilution, normal MH medium. It is filed as cell-based. The note with it: multi-drug resistant clinical isolates (KPC2). On the procedure: as §7, §2, §3, §4, §5
The OD600 value was measured by a microplate reader, Minimal Inhibitory Concentration (MIC) of a drug is the lowest concentration of the drug which prevents growth of bacteria in the wells. 1.2.2 MIC in iron-deficient MH medium

Assay [6] concerns Escherichia coli ATCC 35218. Nature of the assay: MIC, broth microdilution, iron-deficient MH medium. It is filed as cell-based. The note with it: iron-deficient MH medium (16 mg/L 2,2'-bipyridine); quality control strain. The protocol: as §1, §2, §3, §4
(§8) BPL was added to the normal MH medium to obtain a final concentration of 16 mg/L; According to the method in Section 1.2.1, 100 μl of each test sample solution at different concentrations was aspirated to the 1st to 10th well in a 96-well sterile polystyrene plate to obtain the final drug concentrations of 16, 8, 4, 2, 1, 0.5, 0.25, 0.125, 0.06, and 0.03 mg/L, respectively. Then, 100 μl of the test bacterial liquid was added to each well (200 μl per well), and the final concentration of the bacterial liquid was approximately 10^4 CFU/ml. After sealing, it was placed in a 35-37° C. incubator for 18-20 hours for testing the result. The OD600 value was measured by a microplate reader, Minimal Inhibitory Concentration (MIC) of a drug is the lowest concentration of the drug which prevents growth of bacteria in the wells.

Assay [7] relates to Acinetobacter baumannii (4 strains). In words: MIC, broth microdilution, iron-deficient MH medium. It is filed as cell-based. The note with it: iron-deficient MH medium (16 mg/L 2,2'-bipyridine); multidrug-resistant clinical isolates (integron I, OXA23). The protocol: as §7, §2, §3, §4, §8
For assay [8], the system named is Escherichia coli (4 strains). Nature of the assay: MIC, broth microdilution, iron-deficient MH medium. The class given is cell-based. The note with it: iron-deficient MH medium (16 mg/L 2,2'-bipyridine); clinical isolates (ESBLs). The protocol:
as §7, §2, §3, §4, §8

The subject of assay [9] is Klebsiella pneumoniae (4 strains). Nature of the assay: MIC, broth microdilution, iron-deficient MH medium. It is filed as cell-based. The note with it: iron-deficient MH medium (16 mg/L 2,2'-bipyridine); multi-drug resistant clinical isolates (KPC2). The protocol: as §7, §2, §3, §4, §8
In assay [10] the test system is Pseudomonas aeruginosa (4 strains). In words: MIC, broth microdilution, iron-deficient MH medium. It is filed as cell-based. The note with it: iron-deficient MH medium (16 mg/L 2,2'-bipyridine); multidrug-resistant clinical isolates (integrator I, IMP4). The protocol:
as §7, §2, §3, §4, §8

Assay [11] deals with Escherichia coli ECO-14-4 (ESBLs). Nature of the assay: In vivo efficacy in mice systemically infected with Escherichia coli ECO-14-4 (ESBLs). The note with it: Kunming mice, intraperitoneal infection, drug s.c. 0.5 h and 4 h after infection, deaths over 7 days, Bliss method. On the procedure: 3.1 Test strains: Clinically isolated pathogenic Escherichia coli ECO-14-4 (ESBLs), supplied by Sichuan Primed Shines Bio-tech Co., Ltd.
3.2 Test animals: Kunming mice, age: 4 to 5 weeks, weight: 18 to 22 g, half male, half female, SPF grade.
3.3 Test methods: Mice were randomly divided into several groups, 5 mice for each group, half male and half female, and 5 doses for each test drug: 1.25, 2.5, 5, 10 and 20 mg/kg. The mice were intraperitoneally injected with 0.5 mL of […] CFU/mL bacterial suspension for each mouse, and subcutaneously injected with the drug at the designed dose 0.5 h and 4 h after infection. The subcutaneous injection volume was 0.2 ml/20 g mouse weight; the number of deaths in mice was observed and recorded for 7 consecutive days. According to the number of deaths in mice, the half effective dose ED50 was calculated according to the Bliss method using the DAS 1.0 software, edited by Sun Ruiyuan et al.

The test system of assay [12] is multidrug-resistant Klebsiella pneumoniae KR15-4 (KPC2). Nature of the assay: In vivo efficacy in mice systemically infected with multidrug-resistant Klebsiella pneumoniae KR15-4 (KPC2). The note with it: Kunming mice, intraperitoneal infection, drug s.c. 0.5 h and 4 h after infection, deaths over 7 days, Bliss method; for ED50: Klebsiella pneumoniae, read-out: ED50 Subcutaneous injection. On the procedure:
4.1 Test strains: clinically isolated pathogenic multidrug-resistant Klebsiella pneumoniae KR15-4 (KPC2), provided by Sichuan Primed Shines Bio-tech Co., Ltd.
4.2 Test animals: Kunming mice, age: 4 to 5 weeks, weight: 18 to 22 g, half male, half female, SPF grade.
4.3 Test methods: Mice were randomly divided into several groups, 5 mice for each group, half male and half female, and 4 doses for each test drug: 12.5, 25, 50 and 100 mg/kg. The mice were intraperitoneally injected with 0.5 mL of 3.0×10^6 CFU/mL bacterial suspension for each mouse, and subcutaneously injected with the drug at the designed dose 0.5 h and 4 h after infection. The subcutaneous injection volume was 0.2 ml/20 g mouse weight; the number of deaths in mice was observed and recorded for 7 consecutive days. According to the number of deaths in mice, the half effective dose ED50 was calculated according to the Bliss method using the DAS 1.0 software, edited by Sun Ruiyuan et al.

For `CC1(C)[C@H](NC(=O)/C(=N\OCc2cc(=O)c(O)cn2O)c2csc(N)n2)C(=O)N1OS(=O)(=O)O` [BAL30072, reference compound], the “Antibacterial activity MIC, Escherichia coli ATCC 35218” value is 0.125 µg/mL in [1] (quality control strain) and 0.06 µg/mL in assay [6]. The “Antibacterial activity MIC, Acinetobacter baumarmii (4 strains)” value in [2] (normal MH medium, multidrug-resistant clinical isolates (integron I, OXA23)) lay in the range of 2 to 4 µg/mL. Further, the “Antibacterial activity MIC, Escherichia coli (4 strains)” value is 1 µg/mL in [3] and 0.25 to 1 µg/mL in [8]. The “Antibacterial activity MIC, Pseudomonas aeruginosa (4 strains)” value was 2 µg/mL in assay [4] and 1 to 2 µg/mL in assay [10]. Further, the “Antibacterial activity MIC, Klebsiella pneumoniae (4 strains)” value in assay [5] and in [9] was at least 64 µg/mL in each case. In addition, the “Antibacterial activity MIC, Acinetobacter baumannii (4 strains)” value in assay [7] lay within 1 to 2 µg/mL. Moreover, the “ED50 Subcutaneous injection” value in [11] is on record as 4.19 mg/kg.

Consider `C[C@H]1[C@H](NC(=O)/C(=N\OC(C)(C)C(=O)O)c2csc(N)n2)C(=O)N1S(=O)(=O)O` [aztreonam, reference compound], for which, in assay [1], the MIC (usually the lowest concentration that inhibits growth of the organism) was determined as 0.5 µg/mL (≈ 1.15 µM). Besides, in assay [12], the ED50 (usually the midpoint of the dose-response relation) is over 100 mg/kg and the “ED50 Subcutaneous injection” value is over 100 mg/kg.

As to `C[C@@H](O)[C@H]1C(=O)N2C(C(=O)O)=C(S[C@@H]3CN[C@H](C(=O)N(C)C)C3)[C@H](C)[C@H]12` [meropenem, reference compound], the MIC in assay [1] is 0.125 µg/mL (≈ 0.326 µM); in assay [2] (Acinetobacter baumannii, read-out: Antibacterial activity MIC, Acinetobacter baumarmii (4 strains)) it was 64 µg/mL (≈ 167 µM); in assay [3] (Escherichia coli, read-out: Antibacterial activity MIC, Escherichia coli (4 strains)), 0.25 to 32 µg/mL (≈ 0.652 to 83.4 µM); in assay [4] (Pseudomonas aeruginosa, read-out: Antibacterial activity MIC, Pseudomonas aeruginosa (4 strains)) it was 32 to 64 µg/mL (≈ 83.4 to 167 µM); in assay [5] (Klebsiella pneumoniae, read-out: Antibacterial activity MIC, Klebsiella pneumoniae (4 strains)), 32 to 64 µg/mL (≈ 83.4 to 167 µM). In addition, in assay [12], the 50% effective dose (ED50) was over 100 mg/kg. The “ED50 Subcutaneous injection” value in assay [12] is on record as over 100 mg/kg.
